In the NIST ThermoML archive (doi:10.1021/je049918m):
Values joined by “and” are separate entries in the source; they are usually repeats but may differ in a detail not shown here. Identical values can stand only once. Numbers after ± are expanded uncertainties.

Details: Liquid, Falling or rolling sphere viscometry

O [water]
Details | viscosity
255.65 K, 177500 kPa | 2.945 ± 0.038 mPa·s
255.65 K, 190300 kPa | 2.955 ± 0.038 mPa·s
255.65 K, 196700 kPa | 2.959 ± 0.038 mPa·s
255.65 K, 201800 kPa | 2.964 ± 0.038 mPa·s
255.65 K, 231800 kPa | 3.003 ± 0.038 mPa·s
255.65 K, 257800 kPa | 3.056 ± 0.039 mPa·s
255.65 K, 292300 kPa | 3.135 ± 0.04 mPa·s
255.65 K, 321100 kPa | 3.217 ± 0.041 mPa·s
258.15 K, 159300 kPa | 2.678 ± 0.034 mPa·s
258.15 K, 188400 kPa | 2.69 ± 0.034 mPa·s
258.15 K, 205200 kPa | 2.708 ± 0.035 mPa·s
258.15 K, 209200 kPa | 2.71 ± 0.035 mPa·s
258.15 K, 239800 kPa | 2.754 ± 0.035 mPa·s
258.15 K, 282600 kPa | 2.834 ± 0.036 mPa·s
258.15 K, 309000 kPa | 2.898 ± 0.037 mPa·s
258.15 K, 323500 kPa | 2.934 ± 0.038 mPa·s
258.15 K, 333200 kPa | 2.957 ± 0.038 mPa·s
258.15 K, 354100 kPa | 3.019 ± 0.039 mPa·s
258.15 K, 361000 kPa | 3.033 ± 0.039 mPa·s
263.15 K, 112000 kPa | 2.258 ± 0.029 mPa·s
263.15 K, 112100 kPa | 2.258 ± 0.029 mPa·s
263.15 K, 128600 kPa | 2.247 ± 0.029 mPa·s
263.15 K, 150800 kPa | 2.244 ± 0.029 mPa·s
263.15 K, 180700 kPa | 2.256 ± 0.029 mPa·s
263.15 K, 209900 kPa | 2.281 ± 0.029 mPa·s
263.15 K, 240100 kPa | 2.315 ± 0.03 mPa·s
263.15 K, 270500 kPa | 2.357 ± 0.03 mPa·s
263.15 K, 302000 kPa | 2.415 ± 0.031 mPa·s
263.15 K, 335400 kPa | 2.481 ± 0.032 mPa·s
263.15 K, 386400 kPa | 2.605 ± 0.033 mPa·s
268.15 K, 61100 kPa | 1.969 ± 0.025 mPa·s
268.15 K, 80800 kPa | 1.942 ± 0.025 mPa·s
268.15 K, 98000 kPa | 1.927 ± 0.025 mPa·s
268.15 K, 100200 kPa | 1.926 ± 0.025 mPa·s
268.15 K, 124200 kPa | 1.914 ± 0.025 mPa·s
268.15 K, 151100 kPa | 1.913 ± 0.025 mPa·s
268.15 K, 177500 kPa | 1.924 ± 0.025 mPa·s
268.15 K, 213300 kPa | 1.949 ± 0.025 mPa·s
268.15 K, 245400 kPa | 1.982 ± 0.025 mPa·s
268.15 K, 295300 kPa | 2.047 ± 0.026 mPa·s
268.15 K, 350800 kPa | 2.138 ± 0.027 mPa·s
268.15 K, 376700 kPa | 2.19 ± 0.028 mPa·s
268.15 K, 387900 kPa | 2.212 ± 0.028 mPa·s
273.15 K, 100 kPa | 1.799 ± 0.023 mPa·s and 1.802 ± 0.023 mPa·s
273.15 K, 30700 kPa | 1.722 ± 0.022 mPa·s
273.15 K, 60400 kPa | 1.678 ± 0.022 mPa·s
273.15 K, 90700 kPa | 1.653 ± 0.021 mPa·s
273.15 K, 120600 kPa | 1.644 ± 0.021 mPa·s
273.15 K, 150300 kPa | 1.649 ± 0.021 mPa·s
273.15 K, 180000 kPa | 1.659 ± 0.021 mPa·s
273.15 K, 209600 kPa | 1.678 ± 0.022 mPa·s
273.15 K, 240300 kPa | 1.704 ± 0.022 mPa·s
273.15 K, 270400 kPa | 1.735 ± 0.022 mPa·s
273.15 K, 300400 kPa | 1.771 ± 0.023 mPa·s
273.15 K, 330300 kPa | 1.81 ± 0.023 mPa·s
273.15 K, 359500 kPa | 1.852 ± 0.024 mPa·s
273.15 K, 386700 kPa | 1.893 ± 0.024 mPa·s
278.15 K, 100 kPa | 1.528 ± 0.021 mPa·s
278.15 K, 600 kPa | 1.527 ± 0.02 mPa·s
278.15 K, 30700 kPa | 1.481 ± 0.019 mPa·s
278.15 K, 60700 kPa | 1.454 ± 0.019 mPa·s
278.15 K, 90500 kPa | 1.44 ± 0.018 mPa·s
278.15 K, 120300 kPa | 1.439 ± 0.018 mPa·s
278.15 K, 150800 kPa | 1.444 ± 0.019 mPa·s
278.15 K, 180700 kPa | 1.456 ± 0.019 mPa·s
278.15 K, 210700 kPa | 1.476 ± 0.019 mPa·s
278.15 K, 240400 kPa | 1.498 ± 0.019 mPa·s
278.15 K, 270400 kPa | 1.522 ± 0.02 mPa·s
278.15 K, 300600 kPa | 1.555 ± 0.02 mPa·s
278.15 K, 330300 kPa | 1.591 ± 0.02 mPa·s
278.15 K, 360000 kPa | 1.631 ± 0.021 mPa·s
278.15 K, 389000 kPa | 1.672 ± 0.021 mPa·s
283.15 K, 100 kPa | 1.313 ± 0.025 mPa·s and 1.31 ± 0.025 mPa·s
283.15 K, 500 kPa | 1.31 ± 0.023 mPa·s
283.15 K, 30700 kPa | 1.28 ± 0.016 mPa·s
283.15 K, 60700 kPa | 1.264 ± 0.016 mPa·s
283.15 K, 90700 kPa | 1.257 ± 0.016 mPa·s
283.15 K, 120800 kPa | 1.257 ± 0.016 mPa·s
283.15 K, 150800 kPa | 1.263 ± 0.016 mPa·s
283.15 K, 180800 kPa | 1.275 ± 0.016 mPa·s
283.15 K, 210200 kPa | 1.293 ± 0.017 mPa·s
283.15 K, 240600 kPa | 1.314 ± 0.017 mPa·s
283.15 K, 270700 kPa | 1.337 ± 0.017 mPa·s
283.15 K, 300200 kPa | 1.362 ± 0.017 mPa·s
283.15 K, 330000 kPa | 1.39 ± 0.018 mPa·s
283.15 K, 359200 kPa | 1.42 ± 0.018 mPa·s
283.15 K, 385200 kPa | 1.45 ± 0.019 mPa·s
298.15 K, 100 kPa | 0.892 ± 0.011 mPa·s and 0.893 ± 0.011 mPa·s
298.15 K, 31000 kPa | 0.888 ± 0.011 mPa·s
298.15 K, 61000 kPa | 0.888 ± 0.011 mPa·s
298.15 K, 90900 kPa | 0.891 ± 0.011 mPa·s
298.15 K, 120700 kPa | 0.898 ± 0.012 mPa·s
298.15 K, 150600 kPa | 0.907 ± 0.012 mPa·s
298.15 K, 180600 kPa | 0.919 ± 0.012 mPa·s
298.15 K, 210600 kPa | 0.933 ± 0.012 mPa·s
298.15 K, 240600 kPa | 0.948 ± 0.012 mPa·s
298.15 K, 270100 kPa | 0.965 ± 0.012 mPa·s
298.15 K, 299700 kPa | 0.983 ± 0.013 mPa·s
298.15 K, 329200 kPa | 1.002 ± 0.013 mPa·s
298.15 K, 358500 kPa | 1.022 ± 0.013 mPa·s
298.15 K, 384300 kPa | 1.042 ± 0.013 mPa·s
